Assay results reported in US10202368B2, “CXCR7 receptor modulators” (IDORSIA PHARMACEUTICALS LTD, priority 2014, dated 2019).

Target: CXCR7 (Homo sapiens (Human), UniProt P25106)
Experiment: PathHunter CHO-K1 CXCR7 β-arrestin assay (agonistic activity)
Format: cell-based
Conditions: β-arrestin recruitment in PathHunter CHO-K1 CXCR7 β-arrestin cells, 90 minutes at 37° C., geometric mean values
Description: The CXCI12 receptor and CXCR7 agonistic activities of the compounds of formula (I) are determined in accordance with the following experimental method.
The assay is using the PathHunter™ CHO-K1 CXCR7 β-arrestin cell line from DiscoverX. The system is based on the Enzyme Fragment Complementation Technology. Two complementing fragments of the β-galactosidase enzyme are expressed within stably transfected cells. The larger portion of β-gal, termed EA for Enzyme Acceptor, is fused to the C-terminus of b-arrestin 2. The smaller fragment, termed ProLink™ tag, is fused to CXCR7 at the C-terminus. Upon activation, b-arrestin is recruited which forces the interaction of ProLink and EA, allowing complementation of the two fragments of b-gal and the formation of a functional enzyme which is capable of hydrolysing the substrate and generating a chemiluminescent signal.
CHO-K1 CXCR7 β-arrestin cells are detached from culture dishes with a cell dissociation buffer (Invitrogen, #13151-014) and collected in growing medium (F12 HAMS 90% (v/v)/FCS 10% (v/v), Penicillin/streptomycin 1% (v/v)). 5000 cells per well (in 20 μl) are seeded in a 384 well plate (white-walled, clear bottom; BD Falcon #353274). The plate is incubated at 37° C./5% CO2 for 24 hours. Medium is then replaced by 20 μl OPTIMEM (Invitrogen #31985) for 3 to 4 hours. Test compounds are dissolved at 10 mM in DMSO and serially diluted in DMSO to 200× of the final concentration for dose response curves. Compounds are then diluted 1:33.3 in HBSS1X. 5 μl/well of HBSS1X/20 mM HEPES/0.2% BSA are added to the assay plate followed by addition of 5 μl/well of diluted compounds. CXCL12 (Peprotech #300-28A) may be used as a reference agonist. The plate is incubated for 90 minutes at 37° C. 12 μl of detection reagent (Path Hunter Detection Kit, DiscoveRx, #93-0001) is transferred to the assay plate and to the plate is incubated for 1 hour at room temperature. Luminescent signal is read in a microplate reader (FLUOstar Optima, bmg). The calculated EC50 values may fluctuate depending on the daily cellular assay performance. Fluctuations of this kind are known to those skilled in the art. Average EC50 values from several measurements are given as geometric mean values.

Sequence of CXCR7 (P25106 whole entry): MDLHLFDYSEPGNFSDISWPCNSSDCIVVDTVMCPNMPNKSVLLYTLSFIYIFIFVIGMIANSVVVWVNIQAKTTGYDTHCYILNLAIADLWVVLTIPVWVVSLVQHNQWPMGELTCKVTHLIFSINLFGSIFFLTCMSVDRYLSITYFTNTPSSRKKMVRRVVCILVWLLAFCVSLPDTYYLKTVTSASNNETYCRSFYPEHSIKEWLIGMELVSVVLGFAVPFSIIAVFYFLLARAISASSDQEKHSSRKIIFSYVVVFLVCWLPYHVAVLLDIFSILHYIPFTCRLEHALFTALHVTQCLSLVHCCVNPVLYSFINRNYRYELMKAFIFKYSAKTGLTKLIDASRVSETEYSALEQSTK
Sequence of CXCR7 (P32121 whole entry partner): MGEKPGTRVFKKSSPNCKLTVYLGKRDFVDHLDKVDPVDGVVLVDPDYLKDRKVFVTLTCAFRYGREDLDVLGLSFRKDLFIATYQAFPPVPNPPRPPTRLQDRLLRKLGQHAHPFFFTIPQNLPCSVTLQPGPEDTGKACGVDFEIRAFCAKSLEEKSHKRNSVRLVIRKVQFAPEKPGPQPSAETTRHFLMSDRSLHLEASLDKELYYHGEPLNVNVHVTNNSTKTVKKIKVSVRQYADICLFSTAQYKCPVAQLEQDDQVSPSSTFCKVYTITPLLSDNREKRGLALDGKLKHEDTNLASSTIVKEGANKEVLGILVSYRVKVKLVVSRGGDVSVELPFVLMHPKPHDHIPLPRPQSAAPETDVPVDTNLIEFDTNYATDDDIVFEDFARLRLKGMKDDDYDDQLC

Compound	EC50 [nM]
CC(C)N(CCN(Cc1ccccc1C(F)(F)F)C(=O)CNc1cccc2c1N(C)CCN(CC1CC1)C2)C(=O)OC(C)(C)C [Example 50, {2-[[2-(4-Cyclopropylmethyl-1-methyl-2,3,4,5-tetrahydro-1H-benzo[e][1,4]diazepin-9-ylamino)-acetyl]-(2-trifluoromethyl-benzyl)-amino]-ethyl}-isopropyl-carbamic acid tert-butyl ester]	340
CN1CCN(CC2CC2)Cc2cccc(NCC(=O)N(CCN3CCCC3)Cc3ncccc3C(F)(F)F)c21 [Example 51, 2-(4-Cyclopropylmethyl-1-methyl-2,3,4,5-tetrahydro-1H-benzo[e][1,4]diazepin-9-ylamino)-N-(2-pyrrolidin-1-yl-ethyl)-N-(3-trifluoromethyl-pyridin-2-ylmethyl)-acetamide]	1
CC(C)NCCN(Cc1ccccc1C(F)(F)F)C(=O)CNc1cccc2c1N(C)CCN(CC1CC1)C2 [Example 52, 2-(4-Cyclopropylmethyl-1-methyl-2,3,4,5-tetrahydro-1H-benzo[e][1,4]diazepin-9-ylamino)-N-(2-isopropylamino-ethyl)-N-(2-trifluoromethyl-benzyl)-acetamide]	1
CCN1CCOc2c(NCC(=O)N(CCNC(C)C)Cc3ccccc3C(F)(F)F)cccc2C1=O [Example 56, 2-(4-Ethyl-5-oxo-2,3,4,5-tetrahydro-benzo[f][1,4]oxazepin-9-ylamino)-N-(2-isopropylamino-ethyl)-N-(2-trifluoromethyl-benzyl)-acetamide]	16
CCN1CCOc2c(NCC(=O)N(CCN3CCCC3)Cc3ncccc3C(F)(F)F)cccc2C1=O [Example 57, 2-(4-Ethyl-5-oxo-2,3,4,5-tetrahydro-benzo[f][1,4]oxazepin-9-ylamino)-N-(2-pyrrolidin-1-yl-ethyl)-N-(3-trifluoromethyl-pyridin-2-ylmethyl)-acetamide]	60
CCN1CCOc2c(NCC(=O)N(CCN(C)C)Cc3ncccc3C(F)(F)F)cccc2C1=O [Example 58, N-(2-Dimethylamino-ethyl)-2-(4-ethyl-5-oxo-2,3,4,5-tetrahydro-benzo[f][1,4]oxazepin-9-ylamino)-N-(3-trifluoromethyl-pyridin-2-ylmethyl)-acetamide]	74
CCN1CCOc2c(NCC(=O)N(CCN3CCCC3)Cc3ncccc3Cl)cccc2C1=O [Example 59, N-(3-Chloro-pyridin-2-ylmethyl)-2-(4-ethyl-5-oxo-2,3,4,5-tetrahydro-benzo[f][1,4]oxazepin-9-ylamino)-N-(2-pyrrolidin-1-yl-ethyl)-acetamide]	260
CCN1CCOc2c(NCC(=O)N(CCN(C)C)Cc3ncccc3Cl)cccc2C1=O [Example 60, N-(3-Chloro-pyridin-2-ylmethyl)-N-(2-dimethylamino-ethyl)-2-(4-ethyl-5-oxo-2,3,4,5-tetrahydro-benzo[f][1,4]oxazepin-9-ylamino)-acetamide]	260
CN(C)CCN(Cc1ccccc1C(F)(F)F)C(=O)CNc1cccc2c1OCCN(CC1CC1)C2=O [Example 61, 2-(4-Cyclopropylmethyl-5-oxo-2,3,4,5-tetrahydro-benzo[f][1,4]oxazepin-9-ylamino)-N-(2-dimethylamino-ethyl)-N-(2-trifluoromethyl-benzyl)-acetamide]	9
CC(C)NCCN(Cc1ccccc1C(F)(F)F)C(=O)CNc1cccc2c1OCCN(CC1CC1)C2=O [Example 62, 2-(4-Cyclopropylmethyl-5-oxo-2,3,4,5-tetrahydro-benzo[f][1,4]oxazepin-9-ylamino)-N-(2-isopropylamino-ethyl)-N-(2-trifluoromethyl-benzyl)-acetamide]	5
CC(C)(C)NCCN(Cc1ccccc1C(F)(F)F)C(=O)CNc1cccc2c1OCCN(CC1CC1)C2=O [Example 63, N-(2-tert-Butylamino-ethyl)-2-(4-cyclopropylmethyl-5-oxo-2,3,4,5-tetrahydro-benzo[f][1,4]oxazepin-9-ylamino)-N-(2-trifluoromethyl-benzyl)-acetamide]	2
O=C(CNc1cccc2c1OCCN(CC1CC1)C2=O)N(CCN1CCCC1)Cc1ncccc1C(F)(F)F [Example 64, 2-(4-Cyclopropylmethyl-5-oxo-2,3,4,5-tetrahydro-benzo[f][1,4]oxazepin-9-ylamino)-N-(2-pyrrolidin-1-yl-ethyl)-N-(3-trifluoromethyl-pyridin-2-ylmethyl)-acetamide]	7
O=C(CNc1cccc2c1OCC(=O)N(CC1CC1)C2)N(CCN1CCCC1)Cc1ncccc1C(F)(F)F [Example 65, 2-(4-cyclopropylmethyl-3-oxo-2,3,4,5-tetrahydro-benzo[f][1,4]oxazepin-9-ylamino)-N-(2-pyrrolidin-1-yl-ethyl)-N-(3-trifluoromethyl-pyridin-2-ylmethyl)-acetamide]	18
CC(C)(C)NCCN(Cc1ccccc1C(F)(F)F)C(=O)CNc1cccc2c1OCC(=O)N(CC1CC1)C2 [Example 66, N-(2-tert-butylamino-ethyl)-2-(4-cyclopropylmethyl-3-oxo-2,3,4,5-tetrahydro-benzo[f][1,4]oxazepin-9-ylamino)-N-(2-trifluoromethyl-benzyl)-acetamide]	18
CN(C)CCN(Cc1ccccc1C(F)(F)F)C(=O)CNc1cccc2c1OCC(=O)N(CC1CC1)C2 [Example 67, 2-(4-Cyclopropylmethyl-3-oxo-2,3,4,5-tetrahydro-benzo[f][1,4]oxazepin-9-ylamino)-N-(2-dimethylamino-ethyl)-N-(2-trifluoromethyl-benzyl)-acetamide]	37
CC(C)NCCN(Cc1ccccc1C(F)(F)F)C(=O)CNc1cccc2c1OCC(=O)N(CC1CC1)C2 [Example 68, 2-(4-Cyclopropylmethyl-3-oxo-2,3,4,5-tetrahydro-benzo[f][1,4]oxazepin-9-ylamino)-N-(2-isopropylamino-ethyl)-N-(2-trifluoromethyl-benzyl)-acetamide]	15
CCN1CCOc2c(cccc2NCC(=O)N(CCN(C(=O)OC(C)(C)C)C(C)C)Cc2ccccc2C(F)(F)F)C1 [Example 69, {2-[[2-(4-Ethyl-2,3,4,5-tetrahydro-benzo[f][1,4]oxazepin-9-ylamino)-acetyl]-(2-trifluoromethyl-benzyl)-amino]-ethyl}-isopropyl-carbamic acid tert-butyl ester]	430
CCN1CCOc2c(cccc2NCC(=O)N(CCNC(C)(C)C)Cc2ccccc2C(F)(F)F)C1 [Example 70, N-(2-tert-Butylamino-ethyl)-2-(4-ethyl-2,3,4,5-tetrahydro-benzo[f][1,4]oxazepin-9-ylamino)-N-(2-trifluoromethyl-benzyl)-acetamide]	4
CCN1CCOc2c(cccc2NCC(=O)N(CCNC(C)C)Cc2ccccc2C(F)(F)F)C1 [Example 71, 2-(4-Ethyl-2,3,4,5-tetrahydro-benzo[f][1,4]oxazepin-9-ylamino)-N-(2-isopropylamino-ethyl)-N-(2-trifluoromethyl-benzyl)-acetamide]	4
CCN1CCOc2c(cccc2NCC(=O)N(CCN(C)C)Cc2ncccc2C(F)(F)F)C1 [Example 72, N-(2-Dimethylamino-ethyl)-2-(4-ethyl-2,3,4,5-tetrahydro-benzo[f][1,4]oxazepin-9-ylamino)-N-(3-trifluoromethyl-pyridin-2-ylmethyl)-acetamide]	6
CCN1CCOc2c(cccc2NCC(=O)N(CCN(C)C)Cc2ncccc2C)C1 [Example 73, N-(2-Dimethylamino-ethyl)-2-(4-ethyl-2,3,4,5-tetrahydro-benzo[f][1,4]oxazepin-9-ylamino)-N-(3-methyl-pyridin-2-ylmethyl)-acetamide]	59
CCN1CCOc2c(cccc2NCC(=O)N(CCN2CCCC2)Cc2ncccc2C(F)(F)F)C1 [Example 74, 2-(4-Ethyl-2,3,4,5-tetrahydro-benzo[f][1,4]oxazepin-9-ylamino)-N-(2-pyrrolidin-1-yl-ethyl)-N-(3-trifluoromethyl-pyridin-2-ylmethyl)-acetamide]	5
CCN1CCOc2c(cccc2NCC(=O)N(CCN2CCCC2)Cc2ncccc2Cl)C1 [Example 75, N-(3-Chloro-pyridin-2-ylmethyl)-2-(4-ethyl-2,3,4,5-tetrahydro-benzo[f][1,4]oxazepin-9-ylamino)-N-(2-pyrrolidin-1-yl-ethyl)-acetamide]	19
CCN1CCOc2c(cccc2NCC(=O)N(CCN(C)C)Cc2cnc(C(F)(F)F)s2)C1 [Example 76, N-(2-Dimethylamino-ethyl)-2-(4-ethyl-2,3,4,5-tetrahydro-benzo[f][1,4]oxazepin-9-ylamino)-N-(2-trifluoromethyl-thiazol-5-ylmethyl)-acetamide]	430
